Laboratory results taken from PubChem BioAssay (NCI).
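Abbreviation: GI50, concentration required for 50% inhibition of growth. TGI is the concentration that stops growth completely.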

Tests used:
Assay in all cases: DTP human tumour cell line panel, 384-well format
ACHN renal = test system: ACHN renal
SK-MEL-28 melanoma = test system: SK-MEL-28 melanoma
NCI-H522 lung = test system: NCI-H522 lung
HS 578T breast = test system: HS 578T breast
M14 melanoma = test system: M14 melanoma
NCI-H226 lung = test system: NCI-H226 lung
CAKI-1 renal = test system: CAKI-1 renal
DU-145 prostate = test system: DU-145 prostate
IGROV1 ovarian = test system: IGROV1 ovarian
KM12 colon = test system: KM12 colon
RXF 393 renal = test system: RXF 393 renal
A498 renal = test system: A498 renal
OVCAR-8 ovarian = test system: OVCAR-8 ovarian
BT-549 breast = test system: BT-549 breast
MALME-3M melanoma = test system: MALME-3M melanoma
SF-295 CNS = test system: SF-295 CNS
LOX IMVI melanoma = test system: LOX IMVI melanoma
786-0 renal = test system: 786-0 renal
SR leukemia = test system: SR leukemia
T-47D breast = test system: T-47D breast
NCI-H23 lung = test system: NCI-H23 lung
SNB-75 CNS = test system: SNB-75 CNS
HOP-92 NSCLC = test system: HOP-92 NSCLC
TK-10 renal = test system: TK-10 renal
HOP-62 NSCLC = test system: HOP-62 NSCLC
SN12C renal = test system: SN12C renal
MDA-MB-435 melanoma = test system: MDA-MB-435 melanoma
HL-60(TB) leukemia = test system: HL-60(TB) leukemia
A549 NSCLC = test system: A549 NSCLC
SK-MEL-5 melanoma = test system: SK-MEL-5 melanoma
HCT-15 colon = test system: HCT-15 colon
OVCAR-5 ovarian = test system: OVCAR-5 ovarian
RPMI-8226 leukemia = test system: RPMI-8226 leukemia
HCC-2998 colon = test system: HCC-2998 colon
UACC-257 melanoma = test system: UACC-257 melanoma
MOLT-4 leukemia = test system: MOLT-4 leukemia
CCRF-CEM leukemia = test system: CCRF-CEM leukemia
NCI-H460 NSCLC = test system: NCI-H460 NSCLC
K-562 leukemia = test system: K-562 leukemia
HCT-116 colon = test system: HCT-116 colon
OVCAR-4 ovarian = test system: OVCAR-4 ovarian
UO-31 renal = test system: UO-31 renal
SF-268 CNS = test system: SF-268 CNS
MDA-MB-468 breast = test system: MDA-MB-468 breast
PC-3 prostate = test system: PC-3 prostate
EKVX NSCLC = test system: EKVX NSCLC
HT29 colon = test system: HT29 colon
U251 glioblastoma = test system: U251 glioblastoma
COLO 205 colon = test system: COLO 205 colon
MDA-MB-231 breast = test system: MDA-MB-231 breast
NCI/ADR-RES ovarian = test system: NCI/ADR-RES ovarian
OVCAR-3 ovarian = test system: OVCAR-3 ovarian
SW-620 colon = test system: SW-620 colon
SK-OV-3 ovarian = test system: SK-OV-3 ovarian
NCI-H322M lung = test system: NCI-H322M lung
SF-539 CNS = test system: SF-539 CNS
MCF7 breast = test system: MCF7 breast
SNB-19 CNS = test system: SNB-19 CNS

CCN1C(=O)CNc2ncc(-c3ccc(-c4ncn[nH]4)nc3C)nc21
GI50 (ACHN renal): 20 nM | TGI (ACHN renal): 94 nM | GI50 (SK-MEL-28 melanoma): 23.5 nM | TGI (SK-MEL-28 melanoma): 174 nM | GI50 (NCI-H522 lung): 14 nM | TGI (NCI-H522 lung): 134 nM | GI50 (HS 578T breast): 11.2 nM | TGI (HS 578T breast): 34.7 nM | GI50 (M14 melanoma): 18.7 nM | TGI (M14 melanoma): 420 nM | GI50 (NCI-H226 lung): 18.3 nM | TGI (NCI-H226 lung): 69.6 nM | GI50 (CAKI-1 renal): 18.4 nM | TGI (CAKI-1 renal): 53.3 nM | GI50 (DU-145 prostate): 34.1 nM | TGI (DU-145 prostate): 240 nM | GI50 (IGROV1 ovarian): 12.4 nM | TGI (IGROV1 ovarian): 46.7 nM | GI50 (KM12 colon): 28 nM | TGI (KM12 colon): 1420 nM | GI50 (RXF 393 renal): 22.1 nM | TGI (RXF 393 renal): 63.9 nM | GI50 (A498 renal): 14.1 nM | TGI (A498 renal): 82 nM | GI50 (OVCAR-8 ovarian): 32.7 nM | TGI (OVCAR-8 ovarian): 1070 nM | GI50 (BT-549 breast): 15.8 nM | TGI (BT-549 breast): 53.1 nM | GI50 (MALME-3M melanoma): < 10 nM | TGI (MALME-3M melanoma): 41 nM | GI50 (SF-295 CNS): < 10 nM | TGI (SF-295 CNS): 32.8 nM | GI50 (LOX IMVI melanoma): 41.2 nM | TGI (LOX IMVI melanoma): 150 nM | GI50 ([…]-0 renal): 46.2 nM | TGI (786-0 renal): 375 nM | GI50 (SR leukemia): 11.1 nM | TGI (SR leukemia): 24.9 nM | GI50 (T-47D breast): < 10 nM | TGI (T-47D breast): 34.3 nM | GI50 (NCI-H23 lung): 18.4 nM | TGI (NCI-H23 lung): 52.4 nM | GI50 (SNB-75 CNS): < 10 nM | TGI (SNB-75 CNS): 37.9 nM | GI50 (HOP-92 NSCLC): 19.6 nM | TGI (HOP-92 NSCLC): 145 nM | GI50 (TK-10 renal): 23.4 nM | TGI (TK-10 renal): 143 nM | GI50 (HOP-62 NSCLC): 16.8 nM | TGI (HOP-62 NSCLC): 49 nM | GI50 (SN12C renal): 28.2 nM | TGI (SN12C renal): 333 nM | GI50 (MDA-MB-435 melanoma): 36.3 nM | TGI (MDA-MB-435 melanoma): 284 nM | GI50 (HL-60(TB) leukemia): 25.9 nM | TGI (HL-60(TB) leukemia): 59.8 nM | GI50 (A549 NSCLC): 27.5 nM | TGI (A549 NSCLC): 181 nM | GI50 (SK-MEL-5 melanoma): < 10 nM | TGI (SK-MEL-5 melanoma): 39.9 nM | GI50 (HCT-15 colon): 32 nM | TGI (HCT-15 colon): 1040 nM | GI50 (OVCAR-5 ovarian): 28.5 nM | TGI (OVCAR-5 ovarian): 2430 nM | GI50 (RPMI-8226 leukemia): < 10 nM | TGI (RPMI-8226 leukemia): 12.3 nM | GI50 (HCC-2998 colon): 52.6 nM | TGI (HCC-2998 colon): 285 nM | GI50 (UACC-257 melanoma): 40.2 nM | TGI (UACC-257 melanoma): 270 nM | GI50 (MOLT-4 leukemia): 11.8 nM | TGI (MOLT-4 leukemia): 27.4 nM | GI50 (CCRF-CEM leukemia): 23.4 nM | TGI (CCRF-CEM leukemia): 135 nM | GI50 (NCI-H460 NSCLC): 10.7 nM | TGI (NCI-H460 NSCLC): 146 nM | GI50 (K-562 leukemia): 46.5 nM | TGI (K-562 leukemia): 1700 nM | GI50 (HCT-116 colon): 45 nM | TGI (HCT-116 colon): 193 nM | GI50 (OVCAR-4 ovarian): 15.4 nM | TGI (OVCAR-4 ovarian): 178 nM | GI50 (UO-31 renal): 17.9 nM | TGI (UO-31 renal): 91 nM | GI50 (SF-268 CNS): 18.6 nM | TGI (SF-268 CNS): 52.6 nM | GI50 (MDA-MB-468 breast): 16 nM | TGI (MDA-MB-468 breast): 75.1 nM | GI50 (PC-3 prostate): 10.5 nM | TGI (PC-3 prostate): 48.2 nM | GI50 (EKVX NSCLC): 19.1 nM | TGI (EKVX NSCLC): 115 nM | GI50 (HT29 colon): 42.7 nM | TGI (HT29 colon): 1740 nM | GI50 (U251 glioblastoma): 38.5 nM | TGI (U251 glioblastoma): 217 nM | GI50 (COLO 205 colon): 21.8 nM | TGI (COLO 205 colon): 145 nM | GI50 (MDA-MB-231 breast): 23.1 nM | TGI (MDA-MB-231 breast): 12700 nM | GI50 (NCI/ADR-RES ovarian): 37.2 nM | TGI (NCI/ADR-RES ovarian): 220 nM | GI50 (OVCAR-3 ovarian): 29.8 nM | TGI (OVCAR-3 ovarian): 227 nM | GI50 (SW-620 colon): 32 nM | TGI (SW-620 colon): 1130 nM | GI50 (SK-OV-3 ovarian): 21.7 nM | TGI (SK-OV-3 ovarian): 184 nM | GI50 (NCI-H322M lung): 27.7 nM | TGI (NCI-H322M lung): 507 nM | GI50 (SF-539 CNS): 36 nM | TGI (SF-539 CNS): 271 nM | GI50 (MCF7 breast): < 10 nM | TGI (MCF7 breast): 101 nM | GI50 (SNB-19 CNS): 64.6 nM | TGI (SNB-19 CNS): 706 nM
